Measured values published in patent publication US20030027856A1, “Tolterodine metabolites” (priority 2001, published 2003).

Tested on: not listed separately
Assay: Cardiac side effects: QTc interval of the EKG in anesthetized guinea pigs
Format: in vivo
Details: guinea pig, intravenous infusion over 30 min
Experimental: Male guinea pigs (450-600 g) are anesthetized with freshly prepared dialurethane sodium. The jugular vein is catheterized for iv administration of test drugs and the trachea is exposed and cannulated. Subdermal electrodes are positioned for Lead II electrocardiogram recording, monitored on a Grass Polygraph recorder, set at a paper speed of 50 mm/sec. The animals are allowed to stabilize for 30 minute after completion of surgery, and three baseline EKG recordings are then made at 10-minute intervals. The animals are then given a dose of the test compound or vehicle as an intravenous infusion over 30 min. EKG recordings are used to determine QT intervals and heart rates. To compensate for variations in heart rates, QTc intervals are calculated from QT- and RR-intervals as known to those skilled in the art. Prolongation of QTc is indicative of a prolonged action potential, caused by an inhibition of the delayed rectifier potassium channel. Prolongation of QTc is the known cause of Torsades de Pointes ventricular fibrillation by drugs such as terfenadine, astemizole and terodiline (now withdrawn from the market).
In the case of `Cc1ccc(O)c([C@H](CCN(C(C)C)C(C)C)c2ccccc2)c1` [TOLT, R(+)-N,N-diisopropyl-3-(2-hydroxy-5-methylphenyl)-3-phenylpropylamine], the “prolongation of the QTc-interval of the EKG” value is reported as “cause a prolongation of the QTc-interval”. With `CC(C)N(CCC(c1ccccc1)c1cc(CO)ccc1O)C(C)C` (centres unmarked) [RS-5-HM, RS-N,N-diisopropyl-3-(2-hydroxy-5-(hydroxymethyl)phenyl)-3-phenylpropylamine] the “prolongation of the QTc-interval of the EKG” value was “did not cause a prolongation of the QTc interval”. With `Cc1ccc(O)c([C@H](CCNC(C)C)c2ccccc2)c1` [DES-TOLT, R(+)-N-isopropyl-3-(2-hydroxy-5-methylphenyl)-3-phenylpropylamine] the “prolongation of the QTc-interval of the EKG” value was “did not cause a prolongation of the QTc interval”. For `Cc1ccc(O)c(C(CCNC(C)C)c2ccccc2)c1` (centres unmarked) [RS-DES-TOLT, RS-N-Isopropyl-3-(2-hydroxy-5-methylphenyl)-3-phenylpropylamine], the “prolongation of the QTc-interval of the EKG” value was “did not cause a prolongation of the QTc interval”. For `CC(C)N(CC[C@H](c1ccccc1)c1cc(CO)ccc1O)C(C)C` [5-HM, R(+)-N,N-diisopropyl-3-(2-hydroxy-5-(hydroxymethyl)phenyl)-3-phenylpropylamine], the “prolongation of the QTc-interval of the EKG” value was “did not cause a prolongation of the QTc interval”. With `Cc1ccc(O)c(C(CCN(C(C)C)C(C)C)c2ccccc2)c1` (centres unmarked) [RS-TOLT, RS-N,N-diisopropyl-3-(2-hydroxy-5-methylphenyl)-3-phenylpropylamine, reference compound] the “prolongation of the QTc-interval of the EKG” value was “cause a prolongation of the QTc-interval”.

Tested on: muscarinic receptors
Assay: Functional characterization of antimuscarinic activities on smooth muscle strips
Set-up: species or system guinea pig
Details: pharmacological studies in comparison with tolterodine
Experimental: Experiments are performed using methods similar to those described by Kachur et al, 1988 (R and S enantiomers of oxybutynin: Pharmacological effects in guinea pig bladder and intestine. J Pharmacol Exp Ther 247: 867-872) and Noronha-Blob and Kachur, 1991 (Enantiomers of Oxybutynin: In vitro pharmacological characterization at M1, M2 and M3 muscarinic receptors and in vivo effects on urinary bladder contraction, mydriasis and salivary secretion in guinea pigs. J Pharmacol Exp Ther 256: 562-567). Strips of tissue (approximately 10 mm long and 1.5 mm wide) are removed from the body of the urinary bladder of male guinea pigs weighing 400-600 g. […] Contractions are recorded with transducers on a polygraph.
The present series of experiments focuses on the anticholinergic actions of DES-TOLT, and RS-DES-TOLT and their metabolites. In these experiments, in order to assess the viability of each tissue and to serve as a frame of reference, contractions of each strip of tissue are recorded initially in response to exposure to tissue medium in which NaCl is replaced by KCl to yield a concentration of 137.7 mM KCl in the medium. This is followed by return to the standard medium, and then by exposures to progressively in creasing concentrations of carbachol, with separate exposures to each concentration only until the peak response has been recorded. […]
With `CC(C)NCC[C@H](c1ccccc1)c1cc(CO)ccc1O` [5-HM-DES-TOLT, R(+)-N-Isopropyl-3-(2-hydroxy-5-(hydroxymethyl)phenyl)-3-phenylpropylamine] the antimuscarinic activities was “potent antimuscarinic activities”. For `Cc1ccc(O)c([C@H](CCNC(C)C)c2ccccc2)c1` [DES-TOLT, R(+)-N-isopropyl-3-(2-hydroxy-5-methylphenyl)-3-phenylpropylamine], the antimuscarinic activities was “potent antimuscarinic activities”.
